Reference: US9987376B2, “Delivery system for delivery of a substance into the oral cavity” (NORINVENT AB, priority 2008, dated 2018)
Read-outs that look alike come from different tables or passages of the source.

Legend:
[1] = rat, in vivo
Experimental: White/white laboratory standard rats were used for the tests. In test group A, the rats were given scopolamine.
The rats were terminated by carbon-dioxide 4 h after centrifugation and the intestinal organs were examined. The presence of scopolamine or citalopram in the rat bodies was detected by spectrophotometrics and digital imaging as described in Goncalves, Diaz and Moses et al.

[2] = tested on: headache caused by the red wine; assay: relief of red wine headache in voluntary humans; assay type: in vivo, human; details: Group A: 40 mg (1/10 of normal oral dose) bonded to a carrier according to the invention
Experimental: A further test was performed on voluntary humans. The test was performed on a group of 19 persons. Each test person was given 2 L of red wine without gender discrimination. The wine was consumed during 3 hours the evening before testing. The following morning the individuals were divided into two groups A and B, respectively. Group A received 40 mg ( 1/10 of a normal orally administered dose) of ibumetine bonded to a carrier according to the invention. Group B where given an empty membrane with only sugar chains and no active substance. Group A felt a total relief of the headache caused by the red wine within 5 minutes, whereas group B felt no relief at all from the bare membrane with sugar chains. Group B where therefore treated with 400 mg ibumetine by conventional oral delivery. Various degrees of relief were noted after 45 min-1 h. The test procedure is diagrammatically illustrated in FIG. 3.

[3] = tested on: motion sickness in White/white laboratory standard rats; assay: rat centrifuge motion sickness test; assay type: in vivo
Experimental: In test group A, the rats were given scopolamine.
Group B served as a control and was treated with uncoupled scopolamine and a starch matrix carrier without sugar chains.
The membrane size was 1×1 mm made out of starch. To this the labelled sugar chains were coupled and one membrane was put under the upper lip of each rat.
Three equally calibrated centrifuges were used in the test, one for each group of rats A, B, C. Each centrifuge was placed in a box having an entrance/exit through which the rats could move freely between their cage and the centrifuge box. The rats were first allowed to find their way into the centrifuge box before they were lifted up and placed in the centrifuge.
The rats were subsequently spun in the centrifuges at 3 G during 30 seconds.
After centrifugation, the ability of each group A, B, C to localize the exit in the centrifuge box and to return to the cage as well as general steadiness were observed.

[4] = White/white laboratory standard, 4 h

## CN(C)CCCC1(c2ccc(F)cc2)OCc2cc(C#N)ccc21 (stereo not shown) [citalopram]
[1]; [4]
  active substance in kidney or liver: over 75%
  active substance in the brain: less than 4%
[1]; 4 h
  active substance in the brain: 99%
  active substance in the kidneys: less than 0.1%
  active substance in the liver: less than 0.2%

## CC(C)Cc1ccc(C(C)C(=O)O)cc1 (stereo not shown) [ibumetine]
[2]
  time to total relief of the headache: ≤ 5 min

## CN1[C@@H]2C[C@@H](OC(=O)[C@H](CO)c3ccccc3)C[C@H]1[C@@H]1O[C@@H]12 [scopolamine]
[3]; Group A: 1/10 of a normal dose bound by sugar chains to starch matrix, under upper lip, 3 G, 30 seconds
  behaviour / signs of motion sickness after centrifugation: no change in normal behaviour
[3]; Group A: 1/10 of a normal dose bound by sugar chains to starch matrix, 3 G, 30 seconds
  ability to localize the exit in the centrifuge box: managed to directly locate the exit
[3]; Group B: same amount of uncoupled substance with starch matrix without sugar chains, 3 G, 30 seconds
  behaviour / signs of motion sickness after centrifugation: clear signs of motion sickness
[3]; Group B: uncoupled substance, starch matrix without sugar chains, test period of 1 h
  ability to localize the exit in the centrifuge box: could not find the exit
[1]; White/white laboratory standard
  active substance in kidney or liver: over 75%
[1]
  active substance in the kidneys: less than 0.1%
  active substance in the liver: less than 0.2%
